Source: patent publication US8592425B2, “Imidazo[1,2-a]pyridines and imidazo[1,2-b]pyridazines as mark inhibitors” (Merck Sharp & Dohme Corp., priority 2009, dated 2013)
Where a name gives a salt, the structure may show the parent alone.

The molecules below were run against recombinant MARK3 enzyme (Homo sapiens (Human), UniProt P27448) (assay: MARK 3 Assay (HTRF, Cdc25C biotinylated peptide substrate)). Conditions: MARK3, 10 μM ATP, 1 μM peptide substrate, 2 hours at 25° C.
Type: biochemical
Method: MARK3 activity was assayed in vitro using a Cdc25C biotinylated peptide substrate (Cell Signalling Technologies). The phosphopeptide product was quantitated using a Homogenous Time-Resolved Fluorescence (HTRF) assay system (Park et al., 1999, Anal. Biochem. 269:94-104). The reaction mixture contained 50 mM HEPES/Tris-HCl, pH 7.4; […], 5 mM MgCl2, 0.2 mM NaVO4, 5 mM 3-glycerol phosphate, 0.1% Tween-20, 2 mM dithiothreitol, 0.1% BSA, 10 μM ATP, 1 μM peptide substrate, and 10 nM recombinant MARK3 enzyme (University of Dundee) in a final volume of 12 μL. The buffer additionally contained protease inhibitor cocktail (Roche EDTA-free, 1 tab per 50 ml). The kinase reaction was incubated for 2 hours at 25° C., and then terminated with 3 μl Stop/Detection Buffer (50 mM HEPES, pH 7.0, 16.6 mM EDTA, 0.5M KF, 0.1% Tween-20, 0.1% BSA, 2 μg/ml SLX^ent 665 (CISBIO), and 2 μg/mL Eu^3+ cryptate label antibody (CISBIO)). The reaction was allowed to equilibrate overnight at 0° C., and relative fluorescent units were read on an HTRF enabled plate reader (e.g. TECAN GENios Pro).
Inhibitor compounds were assayed in the reaction described above to determine compound IC50s. Aliquots of compound dissolved in DMSO were added to the reaction wells in a third-log dilution series covering a range of 1 nM to 10 μM. Relative phospho substrate formation, read as HTRF fluorescence units, was measured over the range of compound concentrations and a titration curve generated.

Sequence of recombinant MARK3 enzyme (P27448 whole entry, species assumed): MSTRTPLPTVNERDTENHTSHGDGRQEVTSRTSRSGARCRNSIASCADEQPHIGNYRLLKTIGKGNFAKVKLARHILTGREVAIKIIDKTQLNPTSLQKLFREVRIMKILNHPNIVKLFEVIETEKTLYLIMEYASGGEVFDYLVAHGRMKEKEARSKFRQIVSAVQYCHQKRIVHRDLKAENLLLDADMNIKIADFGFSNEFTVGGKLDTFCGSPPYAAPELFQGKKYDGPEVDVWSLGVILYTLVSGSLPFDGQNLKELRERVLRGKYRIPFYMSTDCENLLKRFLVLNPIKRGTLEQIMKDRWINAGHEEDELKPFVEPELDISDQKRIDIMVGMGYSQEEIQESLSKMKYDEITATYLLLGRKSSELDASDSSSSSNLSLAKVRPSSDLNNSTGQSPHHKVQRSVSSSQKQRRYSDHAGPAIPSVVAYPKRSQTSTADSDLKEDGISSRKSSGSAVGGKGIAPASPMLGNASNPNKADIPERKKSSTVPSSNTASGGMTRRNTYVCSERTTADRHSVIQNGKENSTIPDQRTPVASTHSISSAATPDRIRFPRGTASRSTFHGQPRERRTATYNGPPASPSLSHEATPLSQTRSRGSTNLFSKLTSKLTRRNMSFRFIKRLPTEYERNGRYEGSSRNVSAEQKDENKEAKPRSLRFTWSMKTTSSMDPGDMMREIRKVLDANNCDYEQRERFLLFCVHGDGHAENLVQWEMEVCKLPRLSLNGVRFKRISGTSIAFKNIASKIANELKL

Row | Structure (SMILES) | IC50 [nM]
1 | N[C@@H]1CCCC(F)(F)[C@@H]1NC(=O)c1cc(-c2cnc3cc(-c4ccc(F)cc4)cnn23)cs1 [Example 8, (1R,2R)-3,3-difluoro-2-[({4-[7-(4-fluorophenyl)imidazo[1,2-b]pyridazin-3-yl]thiophen-2-yl}carbonyl)amino]cyclohex-anaminium trifluoroacetate] | 0.5
2 | N[C@H]1CCCC(F)(F)[C@@H]1NC(=O)c1nc(-c2cnc3ccccn23)c(Cl)s1 [Example 29, N-[(1R,6S)-6-Amino-2,2-difluorocyclohexyl]-5-chloro-4-(imidazo[1,2-a]pyridin-3-yl)-1,3-thiazole-2-carboxamide] | 720

Continued, values first:

Row | IC50 [nM] | Structure (SMILES)
3 | 20 | Cc1sc(C(=O)N[C@@H]2[C@H](N)CCCC2(F)F)cc1-c1cnc2cccnn12 [Example 1, N-[(1R,6R)-6-Amino-2,2-difluorocyclohexyl]-4-(imidazo[1,2-b]pyridazin-3-yl)-5-methylthiophene-2-carboxamide]
4 | 15 | N[C@H]1CCCC(F)(F)[C@@H]1NC(=O)c1cc(-c2cnc3ccccn23)cs1 [Example 14, N-[(1R,6S)-6-amino-2,2-difluorocyclohexyl]-4-(imidazo[1,2-a]pyridin-3-yl)thiophene-2-carboxamide]
5 | 140 | CCc1sc(C(=O)N[C@@H]2[C@H](N)CCCC2(F)F)cc1-c1cnc2cc(C(F)(F)F)cnn12 [Example 24, N-[(1R,6R)-6-amino-2,2-difluorocyclohexyl]-5-ethyl-4-[7-(trifluoromethyl)imidazo[1,2-b]pyridazin-3-yl]thiophene-2-carboxamide]

Each molecule was assayed on phosphorylation of Tau at S262 in primary cell culture of rat cortical neurons induced by Okadaic acid (assay: pTau(S262) Cell Biochemical and Functional Assay). Conditions: Cortical neurone, Okadaic acid 200 nM, 1.5 hrs, read-out: IC50, inhibition of phosphorylation of Tau at S262.
Type: cell-based
Method: The cell biochemical potency of the below described MARK inhibitors was evaluated by measuring their ability to block the phosphorylation of Tau at S262 in primary cell culture of rat cortical neurons induced by the action of Okadaic acid.
• 1. Store tissue at 4° C. (1-2 days) until ready to use. • 2. When ready to plate, make up 2 mL of enzymatic solution in Hibernate-Ca containing 1× papain. Filter sterile solution with 0.2 μm filter. • 3. Transfer 2 mL of medium from tissue tube into 15 mL falcon tube while not disturbing tissue. Save media. • 4. Add 2 mL enzymatic media (2) to tissue. Incubate for 30′ at 37° C. • 5. Remove enzymatic solution while not disturbing tissue. Add back 1 mL of media from (3). • 6. Using pipettor with sterile plastic tip, triturate ˜10 times until most of the cells are dispersed. • 7. Let undispersed pieces settle by gravity 1 minute. • 8. Transfer dispersed cells (supernatant) into 15 mL falcon tube containing 1 mL media from (3). Gently mix cells by swirling. • 9. Spin cells at 1,100 rpm for 1 minute. Remove supernatant. • 10. Flick tube to loosen cell pellet. Resuspend cells in 5 mL of NB. • 11. Transfer to new 50 mL falcon tube using 40 μm cell strainer. Rinse 15 mL falcon tube with 5 mL media, add to strainer. • 12. Count cells using hemacytometer. • 13. Dilute cells to 7,000 cells/100 μL/well in NB. • 14. Incubate cells at 37° C. with 5% CO2. • a. 4 DIV: Replace ½ volume (50 μL) NB per well. • b. 6 DIV: Neurite Assay. Tissue Culture/Compound Treatment
Primary rat cortical neurons plated @ 6Kcells/well in 384-well black/clear bottom Poly D-Lysine coated BD Falcon Biocoat plates. • Media: Neurobasal+1× B27+2 mM L-Glutamine (+10% FBS) at time of plating
Cells maintained at 37° C. and 5% CO2 for *6 days in culture, w/½ media change every 3-4 days.
Compound treatment: • Prepare first plate: 200× compound in 100% DMSO with subsequent 3 fold serial dilution • Prepare intermediate plate: 1:40 dilution of 200× compound in media (2.5% DMSO) • Add 5× compound to cell in media at 1:5 dilution (0.5% final DMSO) • Incubate for 30 min. at 37° C.
Okadaic Acid (OA) Treatment: • Dilute OA stock (240 μM in 100% DMSO) to 6× final concentration in media (0.5% DMSO) • Add 6× OA to cells at 1:6 dilution (200 nM final). Incubate for 1.5 hrs. at 37° C. Fix and Immunostaining
Fix: 1% PFA, diluted in PBS • Wash 1× with PBS, residual 30 μl/well.
Add 30 μL/well warmed 2% PFA and incubate 30 min. at RT (1% PFA final)
Wash 3× with PBS, 300/well residual […]

Row | Structure (SMILES) | IC50 [µM]
6 | Cc1sc(C(=O)N[C@H]2CCS(=O)(=O)C[C@H]2N)cc1-c1cnc2cccnn12 (relative stereo) [Example 10, N-[cis-3-amino-1,1-dioxidotetrahydro-2H-thiopyran-4-yl]-4-(imidazo[1,2-b]pyridazin-3-yl)-5-methylthiophene-2-carboxamide] | > 10
7 | Cc1sc(C(=O)NC2CS(=O)(=O)CC[C@H]2N)cc1-c1cnc2cccnn12 (stereo partly drawn) [Example 9] | > 10
8 | Cc1sc(C(=O)N[C@@H]2[C@H](N)CCCC2(F)F)cc1-c1cnc2ccccn12 [Example 15, N-[(1R,6R)-6-amino-2,2-difluorocyclohexyl]-4-(imidazo[1,2-a]pyridin-3-yl)-5-methylthiophene-2-carboxamide] | > 10
9 | N[C@@H]1CCCC(F)(F)[C@@H]1NC(=O)c1cc(-c2cnc3cccnn23)c(Cc2ccccc2)s1 [Example 19, N-[(1R,6R)-6-amino-2,2-difluorocyclohexyl]-5-benzyl-4-(imidazo[1,2-b]pyridazin-3-yl)thiophene-2-carboxamide] | > 10
